According to ChEMBL document CHEMBL1145244, “In vitro advanced antimycobacterial screening of isoniazid-related hydrazones, hydrazides and cyanoboranes: part 14” (2005):
Converted amounts (≈) assume the structure as drawn.

How the values were obtained:
Vero = assay: Selective index of IC50 of Vero Cells to that of MIC of Mycobacterium tuberculosis H37Rv; format: functional, Chlorocebus sabaeus
[1] = test system: Mycobacterium tuberculosis; assay: Effective concentration required for the reduction in colony forming units (CFU) at seven days compared to drug free controls; format: functional; conditions: 168 h
[2] = test system: Mycobacterium tuberculosis; assay: In vitro antimycobacterial activity against Mycobacterium tuberculosis H37Rv in broth cluture infected with macrophages; format: functional
[3] = test system: Mycobacterium tuberculosis; assay: Ratio of effective concentration required for the reduction in colony forming units (CFU) at seven days compared to drug free controls to that of MIC against Mycobacterium tuberculosis Erdman; format: functional
[4] = test system: Mycobacterium tuberculosis; assay: In vitro antimycobacterial activity against Mycobacterium tuberculosis Erdman in broth cluture infected with macrophages; format: functional
[5] = test system: Mycobacterium tuberculosis; assay: In vitro antimycobacterial activity against Mycobacterium tuberculosis H37Rv in broth cluture infected with macrophages; Range 0.025-0.05; format: functional

O=C(N/N=C/C(F)(F)F)c1ccncc1
Selective index (Vero): 302
EC90 [1]: 0.05 µg/mL (≈ 0.23 µM)
EC99 [1]: 0.25 µg/mL
MIC [2]: 0.05 µg/mL (≈ 0.23 µM)

N#CC[n+]1ccc(C(=O)NNCC(F)(F)F)cc1
Selective index (Vero): 122
EC90 [1]: 1.14 µg/mL
EC99 [1]: 10.6 µg/mL
Ratio [3]: 0.091
MIC [4]: 12.5 µg/mL
MBC [2]: 3.13 µg/mL
MIC [2]: 0.78 µg/mL

CC(NNC(=O)c1ccncc1)c1ccccc1F (stereo not drawn)
Selective index (Vero): 78.12
EC90 [1]: 2.54 µg/mL (≈ 9.8 µM)
EC99 [1]: 6.06 µg/mL
Ratio [3]: 0.81
MIC [4]: 3.13 µg/mL (≈ 12.1 µM)
MIC [2]: 1.6 µg/mL (≈ 6.17 µM)

C/C=N/NC(=O)c1ccncc1
Selective index (Vero): >2500
EC90 [1]: 0.03 µg/mL (≈ 0.184 µM)
EC99 [1]: 0.08 µg/mL
Ratio [3]: 1.2
MIC [4]: 0.025 µg/mL (≈ 0.153 µM)
MBC [2]: 0.05 µg/mL (≈ 0.306 µM)
MIC [2]: 0.025 µg/mL (≈ 0.153 µM)

C/C(=N\NC(=O)c1ccncc1)c1ccc(F)cc1
Selective index (Vero): >78
EC90 [1]: 1.84 µg/mL (≈ 7.15 µM)
EC99 [1]: 5.25 µg/mL
Ratio [3]: 1.18
MIC [4]: 1.56 µg/mL (≈ 6.06 µM)
MIC [2]: 1.6 µg/mL (≈ 6.22 µM)

O=C(N/N=C/c1ccccc1F)c1ccncc1
Selective index (Vero): 168
EC90 [1]: 0.05 µg/mL (≈ 0.206 µM)
EC99 [1]: 0.14 µg/mL
Ratio [3]: 1
MIC [4]: 0.05 µg/mL (≈ 0.206 µM)
MIC [2]: 0.05 µg/mL (≈ 0.206 µM)

C/C(=N\NC(=O)c1ccncc1)C(F)(F)F
Selective index (Vero): 1160
EC90 [1]: 0.046 µg/mL (≈ 0.199 µM)
EC99 [1]: 0.41 µg/mL
Ratio [3]: 0.46
MIC [4]: 0.1 µg/mL (≈ 0.433 µM)
MBC [2]: 0.2 µg/mL (≈ 0.865 µM)
MIC [2]: 0.05 µg/mL (≈ 0.216 µM)

NNC(=O)c1ccncc1 [ISONIAZID]
Selective index (Vero): >20000
EC90 [1]: 0.03 µg/mL (≈ 0.219 µM)
EC99 [1]: 0.42 µg/mL
MIC [5]: 0.05 µg/mL (≈ 0.365 µM)
MBC [2]: 0.1 µg/mL (≈ 0.729 µM)

N#CC[n+]1ccc(C(=O)NNCc2ccccc2)cc1
EC90 [1]: 0.116 µg/mL
EC99 [1]: 1.49 µg/mL
Ratio [3]: 0.0093
MIC [4]: 12.5 µg/mL
MBC [2]: 1.56 µg/mL
MIC [2]: 0.8 µg/mL

C/C(=N\NC(=O)c1ccncc1)c1cccc(/C(C)=N/NC(=O)c2ccncc2)n1
Selective index (Vero): 320.5
EC90 [1]: 0.09 µg/mL (≈ 0.224 µM)
EC99 [1]: 0.29 µg/mL
Ratio [3]: 0.23
MIC [4]: 0.39 µg/mL (≈ 0.972 µM)
MBC [2]: 12.5 µg/mL (≈ 31.1 µM)
MIC [2]: ≤ 0.2 µg/mL

O=C(N/N=C/c1ccc(C(F)(F)F)cc1)c1ccncc1
Selective index (Vero): >1250
EC90 [1]: 0.04 µg/mL (≈ 0.136 µM)
EC99 [1]: 0.09 µg/mL
Ratio [3]: 0.4
MIC [4]: 0.1 µg/mL (≈ 0.341 µM)
MBC [2]: 0.2 µg/mL (≈ 0.682 µM)
MIC [2]: 0.05 µg/mL (≈ 0.171 µM)
